{"source": "ChEMBL document CHEMBL5113393", "about": "“Discovery of 2-((2-methylbenzyl)thio)-6-oxo-4-(3,4,5-trimethoxyphenyl)-1,6-dihydropyrimidine-5-carbonitrile as a novel and effective bromodomain and extra-terminal (BET) inhibitor for the treatment of sepsis” (Eur J Med Chem, 2022)", "key": {"Mus musculus [1]": {"tested_on": "Mus musculus", "assay": "Protection against LPS-induced sepsis in C57BL/6 mouse model assessed as improvement in orbital movement at 30 mg/kg, ip qd administered for 3 days followed by LPS stimulation", "type": "functional, organism-based", "settings": "time 3.0 day"}, "RAW264.7 [2]": {"tested_on": "RAW264.7", "assay": "Antiinflammatory activity in mouse RAW264.7 cells assessed as reduction in LPS-induced IL-6 level at 5 to 10 uM preincubated for 2 hrs followed by LPS stimulation and measured after 22 hrs by ELISA", "type": "functional, cell-based", "settings": "dose 5-10 µM, time 24.0 hrs"}, "RAW264.7 [3]": {"tested_on": "RAW264.7", "assay": "Antiinflammatory activity in mouse RAW264.7 cells assessed as reduction in LPS-induced TNF-alpha level at 5 to 10 uM preincubated for 2 hrs followed by LPS stimulation and measured after 22 hrs by ELISA", "type": "functional, cell-based", "settings": "dose 5-10 µM, time 24.0 hrs"}, "RAW264.7 [4]": {"tested_on": "RAW264.7", "assay": "Antiinflammatory activity in mouse RAW264.7 cells assessed as inhibition of LPS-induced NO production at 5 uM preincubated for 2 hrs followed by LPS stimulation and measured after 22 hrs by Griess reagent-based assay relative to control", "type": "functional", "settings": "time 24 hrs"}, "[5]": {"target": "Bromodomain-containing protein 4 (Homo sapiens, UniProt O60885)", "assay": "Inhibition of BRD4 BD1 (unknown origin) using FAM-labeled JQ-1 as fluorescent substrate assessed as inhibition constant incubated for 30 mins by competitive fluorescence polarization method"}, "RAW264.7 [6]": {"tested_on": "RAW264.7", "assay": "Antiinflammatory activity in mouse RAW264.7 cells assessed as reduction in LPS-induced TNF-alpha mRNA expression preincubated for 2 hrs followed by LPS stimulation and measured after 22 hrs by RT-qPCR analysis", "type": "functional, cell-based", "settings": "dose 5-25 µM, time 24.0 hrs, DDE = dose-dependent effect"}, "Mus musculus [7]": {"tested_on": "Mus musculus", "assay": "Protection against LPS-induced sepsis in C57BL/6 mouse model assessed as improvement in mobility at 30 mg/kg, ip qd administered for 3 days followed by LPS stimulation", "type": "functional, organism-based", "settings": "time 3.0 day"}, "RAW264.7 [8]": {"tested_on": "RAW264.7", "assay": "Antiinflammatory activity in mouse RAW264.7 cells assessed as inhibition of LPS-induced NO production at 10 uM preincubated for 2 hrs followed by LPS stimulation and measured after 22 hrs by Griess reagent-based assay relative to control", "type": "functional", "settings": "time 24 hrs"}, "Mus musculus [9]": {"tested_on": "Mus musculus", "assay": "Protection against LPS-induced sepsis in C57BL/6 mouse model assessed as increase in survival rate at 30 mg/kg, ip qd administered for 3 days followed by LPS stimulation and measured every 2 hrs for 120 hrs (reference value: 10%)", "type": "functional"}, "Mus musculus [10]": {"tested_on": "Mus musculus", "assay": "Protection against LPS-induced sepsis in C57BL/6 mouse model assessed as increase in survival rate at 15 mg/kg, ip qd administered for 3 days followed by LPS stimulation and measured every 2 hrs for 120 hrs (reference value: 10%)", "type": "functional"}, "Mus musculus [11]": {"tested_on": "Mus musculus", "assay": "Protection against LPS-induced sepsis in C57BL/6 mouse model assessed as reduction in hypothermia administered intraperitoneally daily for 3 days followed by LPS stimulation for 12 hrs and measured every 1 hr by digital thermometer", "type": "functional, organism-based", "settings": "dose lower […], dose upper 30.0 mg/kg, route ip, time 84.0 hrs, DDE = dose-dependent effect"}, "RAW264.7 [12]": {"tested_on": "RAW264.7", "assay": "Antiinflammatory activity in mouse RAW264.7 cells assessed as reduction in LPS-induced IL-6 mRNA expression preincubated for 2 hrs followed by LPS stimulation and measured after 22 hrs by RT-qPCR analysis", "type": "functional, cell-based", "settings": "dose 5-25 µM, time 24.0 hrs, DDE = dose-dependent effect"}, "Mus musculus [13]": {"tested_on": "Mus musculus", "assay": "Antiinflammatory activity against LPS-induced sepsis in C57BL/6 mouse model assessed as reduction in IL-6 level at 15 mg/kg, ip qd administered for 3 days followed by LPS stimulation and measured after 12 hrs by ELISA", "type": "functional, organism-based", "settings": "time 84.0 hrs"}, "RAW264.7 [14]": {"tested_on": "RAW264.7", "assay": "Antiinflammatory activity in mouse RAW264.7 cells assessed as reduction in LPS-induced IL-1beta mRNA expression preincubated for 2 hrs followed by LPS stimulation and measured after 22 hrs by RT-qPCR analysis", "type": "functional, cell-based", "settings": "dose 5-25 µM, time 24.0 hrs, DDE = dose-dependent effect"}, "Mus musculus [15]": {"tested_on": "Mus musculus", "assay": "Antiinflammatory activity against LPS-induced sepsis in C57BL/6 mouse model assessed as reduction in TNF-alpha level at 15 mg/kg, ip qd administered for 3 days followed by LPS stimulation and measured after 12 hrs by ELISA", "type": "functional, organism-based", "settings": "time 84.0 hrs"}, "Mus musculus [16]": {"tested_on": "Mus musculus", "assay": "Protection against LPS-induced sepsis in C57BL/6 mouse model assessed as reduction in white secretion from eyes at 30 mg/kg, ip qd administered for 3 days followed by LPS stimulation", "type": "functional, organism-based", "settings": "time 3.0 day"}}, "note": "Active and inactive are the calls of the source. The rule behind the calls is not given here.", "data": [{"smiles": "COc1cc(-c2nc(SCc3ccccc3C)[nH]c(=O)c2C#N)cc(OC)c1OC", "values": [{"measurement": "Activity", "setting": "Mus musculus [1]", "result": "Active"}, {"measurement": "Activity", "setting": "RAW264.7 [2]", "result": "Active"}, {"measurement": "Activity", "setting": "RAW264.7 [3]", "result": "Active"}, {"measurement": "inhibition at 5 µM", "setting": "RAW264.7 [4]", "result": 74.2, "unit": "%"}, {"measurement": "Ki", "setting": "[5]", "result": 830, "unit": "nM"}, {"measurement": "Activity", "setting": "RAW264.7 [6]", "result": "Dde"}, {"measurement": "Activity", "setting": "Mus musculus [7]", "result": "Active"}, {"measurement": "inhibition at 10 µM", "setting": "RAW264.7 [8]", "result": 99.8, "unit": "%"}, {"measurement": "survival at 30 mg/kg", "setting": "Mus musculus [9]", "result": 80, "unit": "%"}, {"measurement": "survival at 15 mg/kg", "setting": "Mus musculus [10]", "result": 50, "unit": "%"}, {"measurement": "Activity", "setting": "Mus musculus [11]", "result": "Dde"}, {"measurement": "Activity", "setting": "RAW264.7 [12]", "result": "Dde"}, {"measurement": "Activity", "setting": "Mus musculus [13]", "result": "Active"}, {"measurement": "Activity", "setting": "RAW264.7 [14]", "result": "Dde"}, {"measurement": "Activity", "setting": "Mus musculus [15]", "result": "Active"}, {"measurement": "Activity", "setting": "Mus musculus [16]", "result": "Active"}]}]}
